Assay results from the supplement of paper PMC4862054.

Key:
Conditions in all cases: incubation time: 72 h
BT-474 [1] = test: normalised viability (% of control), CellTiter-Blue; higher = more viable cells (about 100 = DMSO control)
Method: (§1)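 DSRT, CellTiter-Blue viability, 72 h incubation. Signal is normalised to DMSO and benzethonium chloride controls. Value is the normalised response at dose 3.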

BT-549 = test: as above
Method: as §1

CAL-120 [2] = test: as above
Method: as §1

CAL-148 = test: as above
Method: as §1

CAL-51 = test: as above
Method: as §1

CAL-85-1 = test: as above
Method: as §1

DU-4475 [3] = test: as above
Method: as §1

HCC1143 = test: as above
Method: as §1

HCC1599 = test: as above
Method: as §1

HCC1937 [4] = test: as above
Method: as §1

HDQ-P1 [5] = test: as above
Method: as §1

Hs578T [6] = test: as above
Method: as §1

MDA-MB-231 [7] = test: as above
Method: as §1

MDA-MB-436 = test: as above
Method: as §1

MDA-MB-453 [8] = test: as above
Method: as §1

MDA-MB-468 [9] = test: as above
Method: as §1

MFM-223 [10] = test: as above
Method: as §1

SK-BR-3 [11] = test: as above
Method: as §1

BT-474 [12] = test: drug sensitivity score (DSS), CellTiter-Glo (DSS (AUC-based score)); higher = stronger drug effect (viability inhibition or cytotoxicity); extreme values may be limits of the assay
Outline: (§2)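 After 72 h of incubation in 384-well plates with compound at 5 concentrations (10-fold steps, 10,000-fold range set per compound), breast cancer cell lines seeded in 20 µl suspension were read first for CellTox Green fluorescence at 485/520 nm. CellTiter-Glo luminescence was measured next, after 10 min at room temperature. Normalisation on each plate used 0.1 % DMSO and a positive kill control, and the drug sensitivity score was computed from the area under the fitted dose-response curve.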

CAL-120 [13] = test: as above
Outline: as §2

DU-4475 [14] = test: as above
Outline: as §2

HCC1937 [15] = test: as above
Outline: as §2

HDQ-P1 [16] = test: as above
Outline: as §2

Hs578T [17] = test: as above
Outline: as §2

MDA-MB-231 [18] = test: as above
Outline: as §2

MDA-MB-453 [19] = test: as above
Outline: as §2

MDA-MB-468 [20] = test: as above
Outline: as §2

MFM-223 [21] = test: as above
Outline: as §2

SK-BR-3 [22] = test: as above
Outline: as §2

| Compound | normalised viability (BT-474 [1]; 100 nM) | normalised viability (BT-549; 100 nM) | normalised viability (CAL-120 [2]; 100 nM) | normalised viability (CAL-148; 10 nM) | normalised viability (CAL-51; 10 nM) | normalised viability (CAL-85-1; 10 nM) | normalised viability (DU-4475 [3]; 10 nM) | normalised viability (HCC1143; 100 nM) | normalised viability (HCC1599; 100 nM) | drug sensitivity score (BT-474 [12]) | drug sensitivity score (CAL-120 [13]) | drug sensitivity score (DU-4475 [14]) | drug sensitivity score (HCC1937 [15]) | drug sensitivity score (HDQ-P1 [16]) | drug sensitivity score (Hs578T [17]) | drug sensitivity score (MDA-MB-231 [18]) | drug sensitivity score (MDA-MB-453 [19]) | drug sensitivity score (MDA-MB-468 [20]) | drug sensitivity score (MFM-223 [21]) | drug sensitivity score (SK-BR-3 [22]) | other results |
| --- | --- | --- | --- | --- | --- | --- | --- | --- | --- | --- | --- | --- | --- | --- | --- | --- | --- | --- | --- | --- | --- |
| Cc1ccc(NC(=O)c2ccc(CN3CCN(C)CC3)cc2)cc1Nc1nc(-c2cccnc2)cs1 [Masitinib] | 115% | 88.3% | 82.3% | 89.8% | 100% | 98.1% | 102% | 83% | 109% | 1.81 | 0 | 0 | 0.648 | 0.939 | 0 | 1.26 | 3.95 | 4.71 | 0.34 | 1.79 | normalised viability (HCC1937 [4]; 100 nM): 107%; normalised viability (HDQ-P1 [5]; 10 nM): 116%; normalised viability (Hs578T [6]; 100 nM): 86.6%; normalised viability (MDA-MB-231 [7]; 100 nM): 88.7%; normalised viability (MDA-MB-436; 100 nM): 71.6%; normalised viability (MDA-MB-453 [8]; 10 nM): 103%; normalised viability (MDA-MB-468 [9]; 100 nM): 103%; normalised viability (MFM-223 [10]; 100 nM): 101%; normalised viability (SK-BR-3 [11]; 100 nM): 80.7% |
| O=C(Nc1cccnc1)N1CCC(Cc2cccc(Oc3ccc(C(F)(F)F)cn3)c2)CC1 [PF-3845] | 116% | 111% | 96.5% | 86.9% | 101% | 92.2% | 104% | 89.9% | 99.6% | 0 | 0.24 | 0 | 0 | 0 | 0 | 0 | 0 | 3.47 | 0 | 0 | normalised viability (HCC1937 [4]; 100 nM): 107%; normalised viability (HDQ-P1 [5]; 10 nM): 116%; normalised viability (Hs578T [6]; 100 nM): 122%; normalised viability (MDA-MB-231 [7]; 100 nM): 128%; normalised viability (MDA-MB-436; 100 nM): 113%; normalised viability (MDA-MB-453 [8]; 10 nM): 105%; normalised viability (MDA-MB-468 [9]; 100 nM): 102%; normalised viability (MFM-223 [10]; 100 nM): 90.1%; normalised viability (SK-BR-3 [11]; 100 nM): 104% |
| Cc1[nH]c2ccccc2c1CCNCc1ccc(/C=C/C(=O)NO)cc1 [Panobinostat] | – | – | – | – | – | – | – | – | – | 16.6 | 12.9 | 19.2 | 9.22 | 8.41 | 15.1 | 18.2 | 23.5 | 15.2 | 13.2 | 22.3 | normalised viability (BT-474 [1]; 10 nM): 97.4%; normalised viability (BT-549; 10 nM): 106%; normalised viability (CAL-120 [2]; 10 nM): 59.3%; normalised viability (CAL-148; 1 nM): 102%; normalised viability (CAL-51; 1 nM): 116%; normalised viability (CAL-85-1; 1 nM): 99.3%; normalised viability (DU-4475 [3]; 1 nM): 115%; normalised viability (HCC1143; 10 nM): 86.7%; normalised viability (HCC1599; 10 nM): 84.7%; normalised viability (HCC1937 [4]; 10 nM): 69.7%; normalised viability (HDQ-P1 [5]; 1 nM): 102%; normalised viability (Hs578T [6]; 10 nM): 86.8%; normalised viability (MDA-MB-231 [7]; 10 nM): 94.6%; normalised viability (MDA-MB-436; 10 nM): 96.4%; normalised viability (MDA-MB-453 [8]; 1 nM): 110%; normalised viability (MDA-MB-468 [9]; 10 nM): 76.8%; normalised viability (MFM-223 [10]; 10 nM): 101%; normalised viability (SK-BR-3 [11]; 10 nM): 52.3% |
| COCC1(CO)C(=O)C2CCN1CC2 (centres undefined) [Prima-1 Met] | 104% | 79.3% | 91.5% | 90.2% | 93.9% | 91.4% | 99.2% | 74.8% | 122% | 0 | 0 | 0 | 0 | 0 | 0 | 0 | 0 | 0 | 0 | 0 | normalised viability (HCC1937 [4]; 100 nM): 118%; normalised viability (HDQ-P1 [5]; 10 nM): 91.2%; normalised viability (Hs578T [6]; 100 nM): 82.6%; normalised viability (MDA-MB-231 [7]; 100 nM): 91.3%; normalised viability (MDA-MB-436; 100 nM): 101%; normalised viability (MDA-MB-453 [8]; 10 nM): 106%; normalised viability (MDA-MB-468 [9]; 100 nM): 106%; normalised viability (MFM-223 [10]; 100 nM): 87.6%; normalised viability (SK-BR-3 [11]; 100 nM): 94.2% |
| CNC(=O)c1cc(Oc2ccc(NC(=O)Nc3ccc(Cl)c(C(F)(F)F)c3)c(F)c2)ccn1 [Regorafenib] | 98.3% | 112% | 87.7% | 93.6% | 101% | 97.1% | 104% | 74.6% | 135% | 2.89 | 1.79 | 1.79 | 1.28 | 2.22 | 3.86 | 0.969 | 2.37 | 1.92 | 6.42 | 1.17 | normalised viability (HCC1937 [4]; 100 nM): 90.4%; normalised viability (HDQ-P1 [5]; 10 nM): 89.6%; normalised viability (Hs578T [6]; 100 nM): 98.4%; normalised viability (MDA-MB-231 [7]; 100 nM): 75.3%; normalised viability (MDA-MB-436; 100 nM): 121%; normalised viability (MDA-MB-453 [8]; 10 nM): 110%; normalised viability (MDA-MB-468 [9]; 100 nM): 107%; normalised viability (MFM-223 [10]; 100 nM): 92.6%; normalised viability (SK-BR-3 [11]; 100 nM): 89.3% |
| CO[C@H]1C[C@@H]2CC[C@@H](C)[C@@](O)(O2)C(=O)C(=O)N2CCCC[C@H]2C(=O)O[C@H]([C@H](C)C[C@@H]2CC[C@@H](OP(C)(C)=O)[C@H](OC)C2)CC(=O)[C@H](C)/C=C(\C)[C@@H](O)[C@@H](OC)C(=O)[C@H](C)C[C@H](C)/C=C/C=C/C=C/1C [Ridaforolimus] | – | – | – | – | – | – | – | – | – | 1.18 | 8.4 | 4.31 | 7.76 | 2.99 | 9.58 | 0 | 8.14 | 12.7 | 6.61 | 10.4 | normalised viability (BT-474 [1]; 10 nM): 60.7%; normalised viability (BT-549; 10 nM): 62.4%; normalised viability (CAL-120 [2]; 10 nM): 48.2%; normalised viability (CAL-148; 1 nM): 60.1%; normalised viability (CAL-51; 1 nM): 79%; normalised viability (CAL-85-1; 1 nM): 67.4%; normalised viability (DU-4475 [3]; 1 nM): 78.2%; normalised viability (HCC1143; 10 nM): 56.4%; normalised viability (HCC1599; 10 nM): 91.8%; normalised viability (HCC1937 [4]; 10 nM): 58.9%; normalised viability (HDQ-P1 [5]; 1 nM): 110%; normalised viability (Hs578T [6]; 10 nM): 50.4%; normalised viability (MDA-MB-231 [7]; 10 nM): 71.9%; normalised viability (MDA-MB-436; 10 nM): 85.6%; normalised viability (MDA-MB-453 [8]; 1 nM): 44.5%; normalised viability (MDA-MB-468 [9]; 10 nM): 61.2%; normalised viability (MFM-223 [10]; 10 nM): 45.2%; normalised viability (SK-BR-3 [11]; 10 nM): 48.4% |
